Data: PubChem BioAssay (NCI)
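Step 1: Grow cells in 96-well plates. Step 2: Expose to compound for 48 hours at 5 concentrations. Step 3: Interpolate endpoints linearly; if unreached, use highest concentration. TGI is the concentration that stops growth completely.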

Legend:
Assay in all cases: DTP human tumour cell line panel, 48 h
MOLT-4 leukemia = system: MOLT-4 leukemia
K-562 leukemia = system: K-562 leukemia
KM12 colon = system: KM12 colon
OVCAR-5 ovarian = system: OVCAR-5 ovarian
U251 CNS = system: U251 CNS
CCRF-CEM leukemia = system: CCRF-CEM leukemia
UACC-257 melanoma = system: UACC-257 melanoma
T-47D breast = system: T-47D breast
SK-MEL-28 melanoma = system: SK-MEL-28 melanoma
SNB-19 CNS = system: SNB-19 CNS
SF-295 CNS = system: SF-295 CNS
LOX IMVI melanoma = system: LOX IMVI melanoma
PC-3 prostate = system: PC-3 prostate
NCI-H23 lung = system: NCI-H23 lung
SF-268 CNS = system: SF-268 CNS
ACHN renal = system: ACHN renal
SK-MEL-2 melanoma = system: SK-MEL-2 melanoma
BT-549 breast = system: BT-549 breast
MDA-N = system: MDA-N

Compound `O=c1ccn2n1Cc1ccccc1C2` has a TGI (MOLT-4 leukemia) greater than 100 µM, a TGI (K-562 leukemia) greater than 100 µM and a TGI (KM12 colon) greater than 100 µM. It also gave a TGI (OVCAR-5 ovarian) greater than 100 µM, a TGI (U251 CNS) greater than 100 µM and a TGI (CCRF-CEM leukemia) greater than 100 µM. It also gave a TGI (UACC-257 melanoma) greater than 100 µM, a TGI (T-47D breast) greater than 100 µM and a TGI (SK-MEL-28 melanoma) greater than 100 µM. It also gave a TGI (SNB-19 CNS) greater than 100 µM, a TGI (SF-295 CNS) greater than 100 µM and a TGI (LOX IMVI melanoma) greater than 100 µM. It also gave a TGI (PC-3 prostate) greater than 100 µM, a TGI (NCI-H23 lung) greater than 100 µM and a TGI (SF-268 CNS) greater than 100 µM. It also gave a TGI (ACHN renal) greater than 100 µM and a TGI (SK-MEL-2 melanoma) greater than 100 µM.

In the case of `O=c1cc(-c2ccccc2)[nH]c2ccc(N3CCOCC3)cc12`, the TGI (MOLT-4 leukemia) is reported as greater than 100 µM, the TGI (K-562 leukemia) is reported as greater than 100 µM and the TGI (KM12 colon) is reported as 0.446 µM. The TGI (OVCAR-5 ovarian) was greater than 100 µM, the TGI (U251 CNS) was greater than 35.8 µM and the TGI (UACC-257 melanoma) was greater than 100 µM. The TGI (T-47D breast) was greater than 100 µM, the TGI (SK-MEL-28 melanoma) was 44.7 µM and the TGI (BT-549 breast) was greater than 100 µM. The TGI (SNB-19 CNS) was greater than 87.5 µM, the TGI (SF-295 CNS) was 0.0773 µM and the TGI (LOX IMVI melanoma) was greater than 100 µM. For the same compound, the TGI (PC-3 prostate) was greater than 100 µM, the TGI (SF-268 CNS) was 15.8 µM and the TGI (ACHN renal) was greater than 91 µM. It also gave a TGI (SK-MEL-2 melanoma) greater than 100 µM.

`Cc1cc(-c2cccc3ccccc23)c(C#N)c(=S)n1C1OC(CO)C(O)C(O)C1O` (stereo not drawn) gave a TGI (MOLT-4 leukemia) greater than 100 µM, a TGI (KM12 colon) greater than 100 µM and a TGI (OVCAR-5 ovarian) greater than 100 µM. For the same compound, the TGI (CCRF-CEM leukemia) was greater than 100 µM, the TGI (UACC-257 melanoma) was greater than 100 µM and the TGI (T-47D breast) was greater than 100 µM. The TGI (SF-295 CNS) was greater than 100 µM, the TGI (LOX IMVI melanoma) was greater than 100 µM and the TGI (MDA-N) was greater than 100 µM. For the same compound, the TGI (PC-3 prostate) was greater than 100 µM, the TGI (NCI-H23 lung) was greater than 100 µM and the TGI (ACHN renal) was greater than 100 µM. The TGI (SK-MEL-2 melanoma) was greater than 100 µM.

`O=c1[nH]nc(-c2ccccc2)n1Nc1ccccc1` showed a TGI (MOLT-4 leukemia) greater than 100 µM, a TGI (K-562 leukemia) greater than 100 µM and a TGI (KM12 colon) greater than 100 µM. The TGI (OVCAR-5 ovarian) was greater than 100 µM, the TGI (U251 CNS) was greater than 100 µM and the TGI (CCRF-CEM leukemia) was greater than 100 µM. The TGI (UACC-257 melanoma) was greater than 100 µM, the TGI (T-47D breast) was greater than 100 µM and the TGI (SK-MEL-28 melanoma) was greater than 100 µM. For the same compound, the TGI (SNB-19 CNS) was greater than 100 µM, the TGI (SF-295 CNS) was greater than 100 µM and the TGI (LOX IMVI melanoma) was greater than 100 µM. For the same compound, the TGI (MDA-N) was greater than 100 µM, the TGI (NCI-H23 lung) was greater than 100 µM and the TGI (SF-268 CNS) was greater than 100 µM. The TGI (ACHN renal) was greater than 100 µM and the TGI (SK-MEL-2 melanoma) was greater than 100 µM.

`CCc1cc2c(c3c1CCC3=O)CC1(Cc3ccc(C)cc3C1)C2` (stereo not drawn) showed a TGI (MOLT-4 leukemia) of 68.7 µM, a TGI (K-562 leukemia) greater than 100 µM and a TGI (KM12 colon) greater than 100 µM. It also gave a TGI (OVCAR-5 ovarian) greater than 100 µM, a TGI (U251 CNS) greater than 100 µM and a TGI (CCRF-CEM leukemia) of 34.7 µM. It also gave a TGI (UACC-257 melanoma) greater than 100 µM, a TGI (T-47D breast) greater than 100 µM and a TGI (SF-295 CNS) greater than 100 µM. The TGI (LOX IMVI melanoma) was greater than 100 µM, the TGI (MDA-N) was greater than 100 µM and the TGI (PC-3 prostate) was 91.7 µM. The TGI (NCI-H23 lung) was greater than 100 µM, the TGI (ACHN renal) was greater than 100 µM and the TGI (SK-MEL-2 melanoma) was 67.6 µM.

In the case of `COc1ccc(CCCCl)c(C2=NCCc3cc(OC)c(OC)cc32)c1`, the TGI (MOLT-4 leukemia) is reported as greater than 100 µM, the TGI (K-562 leukemia) is reported as greater than 100 µM and the TGI (KM12 colon) is reported as greater than 100 µM. The TGI (OVCAR-5 ovarian) was greater than 100 µM, the TGI (U251 CNS) was greater than 100 µM and the TGI (CCRF-CEM leukemia) was greater than 100 µM. The TGI (UACC-257 melanoma) was greater than 100 µM, the TGI (T-47D breast) was greater than 100 µM and the TGI (SK-MEL-28 melanoma) was greater than 100 µM. It also gave a TGI (BT-549 breast) greater than 100 µM, a TGI (SNB-19 CNS) greater than 100 µM and a TGI (SF-295 CNS) greater than 100 µM. For the same compound, the TGI (PC-3 prostate) was greater than 100 µM, the TGI (NCI-H23 lung) was greater than 100 µM and the TGI (SF-268 CNS) was greater than 100 µM. It also gave a TGI (ACHN renal) greater than 100 µM and a TGI (SK-MEL-2 melanoma) greater than 100 µM.

`COc1ccc(/C=C2\CCC(CNc3ccc(S(N)(=O)=O)cc3)C2=O)cc1` (stereo not drawn) showed a TGI (MOLT-4 leukemia) greater than 44.2 µM, a TGI (K-562 leukemia) of 3.74 µM and a TGI (KM12 colon) of 31.3 µM. For the same compound, the TGI (OVCAR-5 ovarian) was 42.6 µM, the TGI (U251 CNS) was 39.2 µM and the TGI (CCRF-CEM leukemia) was 5.98 µM. For the same compound, the TGI (UACC-257 melanoma) was 40.2 µM, the TGI (T-47D breast) was 43.1 µM and the TGI (SK-MEL-28 melanoma) was 34.7 µM. It also gave a TGI (BT-549 breast) of 33.9 µM, a TGI (SNB-19 CNS) greater than 65.9 µM and a TGI (SF-295 CNS) greater than 100 µM. It also gave a TGI (LOX IMVI melanoma) of 23.8 µM, a TGI (PC-3 prostate) of 42.2 µM and a TGI (NCI-H23 lung) of 39.6 µM. It also gave a TGI (SF-268 CNS) of 54.4 µM, a TGI (ACHN renal) of 53.7 µM and a TGI (SK-MEL-2 melanoma) greater than 100 µM.

For `COc1cc(C=O)cc(/C=N/n2c3ccccc3c3ccccc32)c1O`, the TGI (MOLT-4 leukemia) was 76.8 µM, the TGI (K-562 leukemia) was 67.7 µM and the TGI (KM12 colon) was greater than 100 µM. It also gave a TGI (OVCAR-5 ovarian) greater than 100 µM, a TGI (U251 CNS) greater than 100 µM and a TGI (CCRF-CEM leukemia) greater than 100 µM. For the same compound, the TGI (UACC-257 melanoma) was greater than 100 µM, the TGI (T-47D breast) was greater than 100 µM and the TGI (SK-MEL-28 melanoma) was greater than 100 µM. It also gave a TGI (BT-549 breast) of 9.7 µM, a TGI (SNB-19 CNS) greater than 100 µM and a TGI (SF-295 CNS) of 18.6 µM. It also gave a TGI (LOX IMVI melanoma) greater than 100 µM, a TGI (PC-3 prostate) greater than 100 µM and a TGI (NCI-H23 lung) greater than 100 µM. For the same compound, the TGI (SF-268 CNS) was greater than 100 µM and the TGI (ACHN renal) was greater than 100 µM.

Work on `COC(=O)C1=C(C)NC(C)=C(C(=O)OC)C1c1ccccc1NO` yielded a TGI (MOLT-4 leukemia) greater than 100 µM, a TGI (K-562 leukemia) greater than 100 µM and a TGI (KM12 colon) greater than 100 µM. The TGI (OVCAR-5 ovarian) was greater than 100 µM, the TGI (U251 CNS) was greater than 100 µM and the TGI (CCRF-CEM leukemia) was greater than 100 µM. It also gave a TGI (UACC-257 melanoma) greater than 100 µM, a TGI (T-47D breast) greater than 100 µM and a TGI (SK-MEL-28 melanoma) greater than 100 µM. The TGI (BT-549 breast) was greater than 100 µM, the TGI (SNB-19 CNS) was greater than 100 µM and the TGI (SF-295 CNS) was greater than 100 µM. It also gave a TGI (LOX IMVI melanoma) greater than 100 µM, a TGI (PC-3 prostate) greater than 100 µM and a TGI (NCI-H23 lung) greater than 100 µM. For the same compound, the TGI (SF-268 CNS) was greater than 100 µM, the TGI (ACHN renal) was greater than 100 µM and the TGI (SK-MEL-2 melanoma) was greater than 100 µM.

With `CC(C)Oc1c(O)c2c3c(oc(=O)n3C=CC2c2ccccc2)c1OC(C)C` (stereo not drawn) the TGI (MOLT-4 leukemia) was greater than 100 µM, the TGI (KM12 colon) was 89.6 µM and the TGI (OVCAR-5 ovarian) was greater than 100 µM. For the same compound, the TGI (U251 CNS) was 45.2 µM, the TGI (UACC-257 melanoma) was greater than 100 µM and the TGI (T-47D breast) was greater than 100 µM. The TGI (SK-MEL-28 melanoma) was 54.5 µM, the TGI (SNB-19 CNS) was greater than 100 µM and the TGI (SF-295 CNS) was 49.1 µM. The TGI (LOX IMVI melanoma) was greater than 100 µM, the TGI (MDA-N) was greater than 100 µM and the TGI (PC-3 prostate) was 57.1 µM. It also gave a TGI (NCI-H23 lung) of 52.2 µM and a TGI (SK-MEL-2 melanoma) of 40.1 µM.

Work on `O=C1/C(=c2\s/c(=C\c3ccccc3)c(=O)n2-c2ccccc2)SC(=S)N1c1ccccc1` yielded a TGI (MOLT-4 leukemia) greater than 100 µM, a TGI (K-562 leukemia) greater than 100 µM and a TGI (KM12 colon) greater than 100 µM. The TGI (OVCAR-5 ovarian) was greater than 100 µM, the TGI (U251 CNS) was 81.1 µM and the TGI (CCRF-CEM leukemia) was greater than 100 µM. For the same compound, the TGI (UACC-257 melanoma) was greater than 100 µM, the TGI (SK-MEL-28 melanoma) was greater than 100 µM and the TGI (SNB-19 CNS) was greater than 100 µM. It also gave a TGI (SF-295 CNS) greater than 100 µM, a TGI (LOX IMVI melanoma) greater than 100 µM and a TGI (MDA-N) greater than 100 µM. It also gave a TGI (PC-3 prostate) greater than 100 µM, a TGI (NCI-H23 lung) greater than 100 µM and a TGI (SF-268 CNS) greater than 100 µM. For the same compound, the TGI (ACHN renal) was 76.2 µM and the TGI (SK-MEL-2 melanoma) was greater than 100 µM.

`CN1C2=C(CC3=C1CC(C)(C)CC3=O)C(=O)CC(C)(C)C2` showed a TGI (MOLT-4 leukemia) greater than 100 µM, a TGI (K-562 leukemia) greater than 100 µM and a TGI (KM12 colon) greater than 100 µM. The TGI (OVCAR-5 ovarian) was greater than 100 µM, the TGI (U251 CNS) was greater than 100 µM and the TGI (CCRF-CEM leukemia) was greater than 100 µM. For the same compound, the TGI (SK-MEL-28 melanoma) was greater than 100 µM, the TGI (BT-549 breast) was greater than 100 µM and the TGI (SNB-19 CNS) was greater than 100 µM. For the same compound, the TGI (LOX IMVI melanoma) was greater than 100 µM, the TGI (PC-3 prostate) was greater than 100 µM and the TGI (NCI-H23 lung) was greater than 100 µM. It also gave a TGI (SF-268 CNS) greater than 100 µM and a TGI (ACHN renal) greater than 100 µM.
